{
  "source": "patent US20200323986A1",
  "about": "“HYDROPHOBIC ARENESULFONATE SALTS” (Theracaine LLC, priority 2017, published 2020)",
  "key": {"[1]": {"assay": "Clinical (cage side) observations and body weight after a single subcutaneous dose", "settings": "rat; for tolerability as administered (summary): particles in PEG200, 114/134/161/193 mg/kg-bw (Groups 1-4)", "protocol": "(§1) The test articles are drug compositions consisting of B-4BrBSA-650, B-35BrBSA-650, L-4BrBSA-650, and L-35BrBSA-650 particles in a polyethylene glycol 200 vehicle (PEG200; Sigma-Aldrich, polyethylene glycol 200 Bioultra). The test articles were prepared by adding a volume of […] to an appropriate weighed amount of test article in a vial, gently mixed, and then applied uniformly via a single subcutaneous dose via incision on the dorsum of female Sprague Dawley rats.\n(§2) Doses were administered via an incision on the dorsal region, as a subcutaneous liquid application (suspension of powder). Each test article was administered at an amount determined by each animal's weight using the calculated mg per kg-bw (bodyweight) as shown in the table below.\n(§3) The vehicle was provided as a liquid in an individual container. […] A volume of 100 μL of vehicle was added to each individual dose, allowed to soak, and shaken occasionally to uniformly mix the particles with the PEG200.\n(§4) For all groups, the test article suspension was applied to the subcutaneum using a plastic spatula. The test article was distributed as evenly as possible. Incisions were closed with staples, and the animals allowed to recover. All animals received analgesia and antibiotic treatment.\n(§5) Cage side observations were performed daily."}, "[2]": {"assay": "Pharmacokinetics of caine anesthetic salt particles after a single subcutaneous dose (plasma drug concentration versus time)", "settings": "rat; for initial spike in bupivacaine plasma concentration: single subcutaneous dose, 650 μm particles in PEG200, Groups 1 and 2; for delivery of lidocaine over time (plasma lidocaine concentration versus time) / initial spike in plasma lidocaine concentration: in vivo, sc", "protocol": "as §1, §2, §3, §4, §5"}, "[3]": {"assay": "Gross evaluation of dose sites and general gross necropsy at study termination", "format": "in vivo, female Sprague Dawley rats", "settings": "rat", "protocol": "Sigma-Aldrich, polyethylene glycol 200 Bioultra). […] The test article was distributed as evenly as possible. […] All animals received analgesia and antibiotic treatment. Cage side observations were performed daily."}, "[4]": {"settings": "animals that lost weight, over the course of the study"}, "[5]": {"settings": "five animals per group, single subcutaneous dose"}, "[6]": {"settings": "group average, single subcutaneous dose"}, "[7]": {"settings": "at study termination (after 96 h sampling)"}},
  "data": [
    {"compound": "CCCCN1CCCCC1C(=O)Nc1c(C)cccc1C.Cc1c(Br)cc(S(=O)(=O)O)cc1Br", "note": "(centres unmarked) [B-35BrBSA-650, Bupivacaine 3,5-dibromo-4-methybenzenesulfonate salt]", "values": [
      {"measurement": "weight loss", "setting": "[1]; [4]", "value": "less than 5 % total body weight"},
      {"measurement": "animals that lost weight over the course of the study", "setting": "[1]; [5]", "value": "two out of five"},
      {"measurement": "group mean body weight change at the end of the study", "setting": "[1]; [6]", "value": 1, "unit": "gram"},
      {"measurement": "tolerability as administered (summary)", "setting": "[1]; single subcutaneous dose", "value": "well tolerated"},
      {"measurement": "duration of delivery of bupivacaine (plasma bupivacaine concentration versus time)", "setting": "[2]; single subcutaneous dose via dorsal incision, 650 μm particles in 100 μL PEG200, 114 (Group 1) / 134 (Group 2) mg/kg-bw, plasma to 96 h, FIGS. 1-2", "value": "greater duration of delivery of bupivacaine compared to test article 1"},
      {"measurement": "initial spike in bupivacaine plasma concentration", "setting": "[2]; FIGS. 1-2", "value": "without the initial spike in bupivacaine plasma concentration"},
      {"measurement": "encapsulation at dose site", "setting": "[3]; at study termination", "value": "No encapsulation was present"},
      {"measurement": "other dose site findings (hematoma, unknown material)", "setting": "[3]; at study termination", "value": "A small hematoma was present in Animal #7"},
      {"measurement": "vascularization surrounding the incision sites (dose site observation)", "setting": "[3]; at study termination", "value": "very slight to slight vascularization"},
      {"measurement": "residual test article visible at dose site", "setting": "[3]; [7]", "value": "Small areas of residual test article were visible at or near the incision site in all animals"}
    ]},
    {"compound": "CCCCN1CCCCC1C(=O)Nc1c(C)cccc1C.O=S(=O)(O)c1ccc(Br)cc1", "note": "(centres unmarked) [Example B-4BrBSA-650, Bupivacaine 4-bromobenzenesulfonate salt]", "values": [
      {"measurement": "weight loss", "setting": "[1]; [4]", "value": "less than 5 % total body weight"},
      {"measurement": "animals that lost weight over the course of the study", "setting": "[1]; [5]", "value": "two out of five"},
      {"measurement": "group mean body weight change at the end of the study", "setting": "[1]; [6]", "value": 4, "unit": "gram"},
      {"measurement": "tolerability as administered (summary)", "setting": "[1]; single subcutaneous dose", "value": "well tolerated"},
      {"measurement": "initial spike in bupivacaine plasma concentration", "setting": "[2]; FIGS. 1-2", "value": "initial spike in bupivacaine plasma concentration exhibited by test article 1"},
      {"measurement": "encapsulation at dose site", "setting": "[3]; at study termination", "value": "No additional encapsulation or residual test article was visible"},
      {"measurement": "other dose site findings (hematoma, unknown material)", "setting": "[3]; at study termination", "value": "Hematomas were present in Animals #2 and #4, with encapsulation of clotted blood in Animal #4"},
      {"measurement": "vascularization surrounding the incision sites (dose site observation)", "setting": "[3]; at study termination", "value": "very slight to slight vascularization"},
      {"measurement": "residual test article visible at dose site", "setting": "[3]; [7]", "value": "No additional encapsulation or residual test article was visible"}
    ]},
    {"compound": "CCN(CC)CC(=O)Nc1c(C)cccc1C.O=S(=O)(O)c1ccc(Br)cc1", "note": "[Example L-4BrBSA-650, Lidocaine 4-bromobenzenesulfonate salt]", "values": [
      {"measurement": "weight loss", "setting": "[1]; in vivo", "value": "less than 5 % total body weight"},
      {"measurement": "animals that lost weight over the course of the study", "setting": "[1]; in vivo, sc", "value": "four out of five"},
      {"measurement": "group mean body weight change at the end of the study", "setting": "[1]; in vivo, sc", "value": "−1", "unit": "gram"},
      {"measurement": "survival", "setting": "[1]; single subcutaneous dose, to scheduled euthanasia (96 h study)", "value": "all animals survived until scheduled euthanasia"},
      {"measurement": "delivery of lidocaine over time (plasma lidocaine concentration versus time)", "setting": "[2]", "value": "at least 24 hours"},
      {"measurement": "initial spike in plasma lidocaine concentration", "setting": "[2]", "value": "initial spike in plasma lidocaine concentration exhibited by test article 3"},
      {"measurement": "encapsulation size at dose site", "setting": "[3]; in vivo", "value": "0.5-3 cm"},
      {"measurement": "other dose site findings (hematoma, unknown material)", "setting": "[3]; in vivo", "value": "Areas of an unknown brown material were present in Animal #13"},
      {"measurement": "residual test article visible at dose site", "setting": "[3]; in vivo", "value": "No residual test article was visible"},
      {"measurement": "vascularization surrounding the incision sites (dose site observation)", "setting": "[3]; in vivo", "value": "moderate to severe vascularization"}
    ]},
    {"compound": "CCN(CC)CC(=O)Nc1c(C)cccc1C.Cc1c(Br)cc(S(=O)(=O)O)cc1Br", "note": "[L-35BrBSA-650, Lidocaine 3,5-dibromo-4-methybenzenesulfonate salt]", "values": [
      {"measurement": "weight loss", "setting": "[1]; in vivo", "value": "less than 5 % total body weight"},
      {"measurement": "animals that lost weight over the course of the study", "setting": "[1]; in vivo, sc", "value": "two out of five"},
      {"measurement": "group mean body weight change at the end of the study", "setting": "[1]; in vivo, sc", "value": 1, "unit": "gram"},
      {"measurement": "tolerability as administered (summary)", "setting": "[1]; single subcutaneous dose", "value": "well tolerated"},
      {"measurement": "delivery of lidocaine over time (plasma lidocaine concentration versus time)", "setting": "[2]", "value": "at least 24 hours"},
      {"measurement": "initial spike in plasma lidocaine concentration", "setting": "[2]", "value": "avoids the initial spike in plasma lidocaine concentration"},
      {"measurement": "encapsulation at dose site", "setting": "[3]; in vivo", "value": "No residual test article or encapsulation was visible"},
      {"measurement": "residual test article visible at dose site", "setting": "[3]; in vivo", "value": "No residual test article or encapsulation was visible"},
      {"measurement": "vascularization surrounding the incision sites (dose site observation)", "setting": "[3]; in vivo", "value": "very slight to moderate vascularization"}
    ]}
  ]
}
